# ChEMBL document CHEMBL5500392, “Functional and Structural Characterization of Clinical-Stage Janus Kinase 2 Inhibitors Identifies Determinants for Drug Selectivity” (J Med Chem, 2024)
# Activity calls are given as the source filed them. No cut-off for these calls is given here.
# Legend:
# [1] = biological target: T1, Tyrosine-protein kinase JAK1 (Homo sapiens, UniProt P23458); assay: Binding affinity to recombinant human JAK1 JH2 (553 to 856-His residues) pseudokinase domain by fluorescence polarization assay
# [2] = biological target: T2, Non-receptor tyrosine-protein kinase TYK2 (Homo sapiens, UniProt P29597); assay: Binding affinity to recombinant human TYK2 JH2 (564 to 876-His residues) pseudokinase domain by fluorescence polarization assay
# [3] = biological target: T1, Tyrosine-protein kinase JAK1; assay: Binding affinity to recombinant human JAK1 kinase domain by fluorescence polarization assay
# [4] = biological target: T2, Non-receptor tyrosine-protein kinase TYK2; assay: Binding affinity to recombinant human TYK2 kinase domain by fluorescence polarization assay
# [5] = biological target: T1, Tyrosine-protein kinase JAK1; assay: Inhibition of recombinant human JAK1 assessed as inhibition of substrate phosphorylation measured every 5 mins for 30 mins by LANCE Ultra kinase assay
# [6] = biological target: T2, Non-receptor tyrosine-protein kinase TYK2; assay: Inhibition of recombinant human TYK2 assessed as inhibition of substrate phosphorylation measured every 5 mins for 30 mins by LANCE Ultra kinase assay
# [7] = biological target: T3, Tyrosine-protein kinase JAK2 (Homo sapiens, UniProt O60674); conditions: dose 30-200 µM
# [8] = biological target: T3, Tyrosine-protein kinase JAK2; conditions: dose 30-200 µM; remark: listed apart in the source
# [9] = biological target: T3, Tyrosine-protein kinase JAK2; conditions: dose 30-200 µM; remark: listed apart in the source
# BaF3 [10] = assay: Cytotoxicity against IL-3 dependent humanized mouse BaF3 cells expressing wild type human JAK2 assessed as inhibition of cell growth incubated for 48 hrs by alamarBlue assay; assay type: functional, cell-based
# BaF3 [11] = assay: Cytotoxicity against IL-3 dependent humanized mouse BaF3 cells expressing human JAK2 V617F mutant assessed as inhibition of cell growth incubated for 48 hrs by alamarBlue assay; assay type: functional, cell-based
# [12] = biological target: T3, Tyrosine-protein kinase JAK2; assay: Binding affinity to recombinant human JAK2 kinase domain by fluorescence polarization assay
# [13] = biological target: T4, Tyrosine-protein kinase JAK3 (Homo sapiens, UniProt P52333); assay: Binding affinity to recombinant human JAK3 kinase domain by fluorescence polarization assay
# T4 sequence (P52333 whole entry): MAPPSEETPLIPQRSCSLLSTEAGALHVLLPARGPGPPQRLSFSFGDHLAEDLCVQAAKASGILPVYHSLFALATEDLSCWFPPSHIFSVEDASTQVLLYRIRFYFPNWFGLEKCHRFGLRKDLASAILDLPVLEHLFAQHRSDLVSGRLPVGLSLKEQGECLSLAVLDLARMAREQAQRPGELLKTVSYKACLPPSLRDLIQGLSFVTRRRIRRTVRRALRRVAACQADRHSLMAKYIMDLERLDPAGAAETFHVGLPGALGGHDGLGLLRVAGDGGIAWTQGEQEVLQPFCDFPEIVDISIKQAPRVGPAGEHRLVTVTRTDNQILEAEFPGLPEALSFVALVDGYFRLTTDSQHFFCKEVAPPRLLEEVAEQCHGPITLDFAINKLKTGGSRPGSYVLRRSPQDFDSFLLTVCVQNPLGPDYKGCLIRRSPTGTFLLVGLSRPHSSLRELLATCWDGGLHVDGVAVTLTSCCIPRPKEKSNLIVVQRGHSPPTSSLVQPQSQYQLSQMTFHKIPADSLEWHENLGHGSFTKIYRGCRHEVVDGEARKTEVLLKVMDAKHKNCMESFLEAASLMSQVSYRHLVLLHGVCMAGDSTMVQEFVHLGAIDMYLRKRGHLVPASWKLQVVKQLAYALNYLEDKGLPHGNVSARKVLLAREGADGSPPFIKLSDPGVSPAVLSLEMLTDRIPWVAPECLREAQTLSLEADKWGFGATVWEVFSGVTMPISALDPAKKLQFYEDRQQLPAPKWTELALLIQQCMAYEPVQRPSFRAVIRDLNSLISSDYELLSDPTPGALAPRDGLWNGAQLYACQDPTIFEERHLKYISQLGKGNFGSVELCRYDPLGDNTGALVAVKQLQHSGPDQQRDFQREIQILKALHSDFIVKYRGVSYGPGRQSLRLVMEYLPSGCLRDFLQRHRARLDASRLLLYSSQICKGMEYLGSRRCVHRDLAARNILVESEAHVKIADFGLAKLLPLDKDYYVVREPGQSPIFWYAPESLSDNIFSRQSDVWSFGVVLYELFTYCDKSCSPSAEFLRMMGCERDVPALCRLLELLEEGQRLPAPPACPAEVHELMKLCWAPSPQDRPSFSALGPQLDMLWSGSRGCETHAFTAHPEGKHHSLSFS
# [14] = biological target: T3, Tyrosine-protein kinase JAK2; assay: Inhibition of recombinant human JAK2 assessed as inhibition of substrate phosphorylation measured every 5 mins for 30 mins by LANCE Ultra kinase assay
# [15] = biological target: T4, Tyrosine-protein kinase JAK3; assay: Inhibition of recombinant human JAK3 assessed as inhibition of substrate phosphorylation measured every 5 mins for 30 mins by LANCE Ultra kinase assay
# Homo sapiens [16] = organism: Homo sapiens; assay: Selectivity index, ratio of IC50 for recombinant human JAK1 kinase domain to IC50 for recombinant human JAK2 kinase domain
# [17] = biological target: T3, Tyrosine-protein kinase JAK2; assay: Binding affinity to recombinant human JAK2 kinase domain (840 to 1132 residues) assessed as dissociation constant by ITC analysis
# [18] = biological target: T3, Tyrosine-protein kinase JAK2; assay: Inhibition of JAK2-mediated erythropoietin-induced STAT5 phosphorylation in human TF-1 cells pretreated for 60 mins followed by erythropoietin addition and measured after 15 mins by pacific orange/pacific blue NHS esters based Beckmann coulter flow cytometer; assay type: cell-based
# Homo sapiens [19] = organism: Homo sapiens; assay: Selectivity index, ratio of IC50 for inhibition of JAK1/JAK3-mediated IL-2 induced STAT5 phosphorylation in human whole blood CD4+ T cells to IC50 for inhibition of JAK1/TYK2-mediated IFN-alpha induced STAT1 phosphorylation in whole blood CD33-positive monocytes; assay type: cell-based
# Homo sapiens [20] = organism: Homo sapiens; assay: Selectivity index, ratio of IC50 for inhibition of JAK1-mediated IL-6 induced STAT3 phosphorylation in human whole blood CD33-positive monocytes to IC50 for inhibition of JAK1/TYK2-mediated IFN-alpha induced STAT1 phosphorylation in whole blood CD33-positive monocytes; assay type: cell-based
# Homo sapiens [21] = organism: Homo sapiens; assay: Selectivity index, ratio of IC50 for inhibition of JAK1/JAK2-mediated IFNgamma-induced STAT1 phosphorylation in human whole blood CD33-positive monocytes to IC50 for inhibition of JAK1/TYK2-mediated IFN-alpha induced STAT1 phosphorylation in whole blood CD33-positive monocytes; assay type: cell-based
# Homo sapiens [22] = organism: Homo sapiens; assay: Selectivity index, ratio of IC50 for inhibition of JAK2-mediated GM-CSF-induced STAT5 phosphorylation in human whole blood CD33-positive monocytes to IC50 for inhibition of JAK1/TYK2-mediated IFN-alpha induced STAT1 phosphorylation in whole blood CD33-positive monocytes; assay type: cell-based
# [23] = biological target: T3, Tyrosine-protein kinase JAK2; assay: Binding affinity to recombinant human JAK2 kinase domain (840 to 1132 residues) assessed as gibbs free energy change at 30 to 200 uM by fluorescence polarization measurement combined ITC analysis; conditions: dose 30-200 µM
# [24] = biological target: T3, Tyrosine-protein kinase JAK2; assay: Binding affinity to recombinant human JAK2 kinase domain (840 to 1132 residues) assessed as dissociation constant by fluorescence polarization measurement combined ITC analysis
# [25] = biological target: T3, Tyrosine-protein kinase JAK2; assay: Binding affinity to recombinant human JAK2 kinase domain (840 to 1132 residues) assessed as change in enthalpy at 30 to 200 uM by fluorescence polarization measurement combined ITC analysis; conditions: dose 30-200 µM
# [26] = biological target: T3, Tyrosine-protein kinase JAK2; assay: Binding affinity to recombinant human JAK2 kinase domain (840 to 1132 residues) assessed as change in entropy at 30 to 200 uM by fluorescence polarization measurement combined ITC analysis; conditions: dose 30-200 µM
# [27] = Selectivity index, ratio of IC50 for cytotoxicity against IL-3 dependent humanized mouse BaF3 cells expressing wild type human JAK2 to IC50 for cytotoxicity against IL-3 dependent humanized mouse BaF3 cells expressing human JAK2 V617F mutant; assay type: functional
# T1 sequence (P23458 whole entry, the tested form may be a part): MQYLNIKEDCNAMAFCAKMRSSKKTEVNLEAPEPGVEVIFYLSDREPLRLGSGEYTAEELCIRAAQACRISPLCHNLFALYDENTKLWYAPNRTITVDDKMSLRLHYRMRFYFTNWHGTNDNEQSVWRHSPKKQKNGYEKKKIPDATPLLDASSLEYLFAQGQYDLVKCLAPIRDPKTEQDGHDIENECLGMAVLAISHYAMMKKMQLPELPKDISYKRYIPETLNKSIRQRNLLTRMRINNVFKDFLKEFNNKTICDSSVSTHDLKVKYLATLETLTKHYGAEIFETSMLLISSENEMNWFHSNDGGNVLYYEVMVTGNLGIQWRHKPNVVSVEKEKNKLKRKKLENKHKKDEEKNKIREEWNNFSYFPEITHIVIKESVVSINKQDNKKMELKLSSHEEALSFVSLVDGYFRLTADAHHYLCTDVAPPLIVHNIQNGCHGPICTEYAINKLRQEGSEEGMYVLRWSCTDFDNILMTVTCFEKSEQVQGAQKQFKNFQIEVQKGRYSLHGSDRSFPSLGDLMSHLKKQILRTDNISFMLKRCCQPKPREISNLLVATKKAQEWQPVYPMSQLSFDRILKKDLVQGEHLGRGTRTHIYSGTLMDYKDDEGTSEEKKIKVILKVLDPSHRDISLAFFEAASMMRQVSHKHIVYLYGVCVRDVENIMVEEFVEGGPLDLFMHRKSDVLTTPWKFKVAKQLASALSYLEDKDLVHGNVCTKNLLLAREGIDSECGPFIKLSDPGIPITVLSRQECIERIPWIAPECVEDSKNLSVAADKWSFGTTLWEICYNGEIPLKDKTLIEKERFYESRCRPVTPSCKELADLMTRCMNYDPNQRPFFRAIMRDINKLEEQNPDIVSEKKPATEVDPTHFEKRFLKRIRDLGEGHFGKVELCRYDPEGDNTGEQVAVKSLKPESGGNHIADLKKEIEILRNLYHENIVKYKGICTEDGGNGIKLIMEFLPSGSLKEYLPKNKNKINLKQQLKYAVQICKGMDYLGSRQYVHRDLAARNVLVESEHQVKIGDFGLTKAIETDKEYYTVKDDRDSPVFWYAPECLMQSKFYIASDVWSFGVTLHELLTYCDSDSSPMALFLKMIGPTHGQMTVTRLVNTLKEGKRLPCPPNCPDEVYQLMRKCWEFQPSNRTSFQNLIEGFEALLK
# T3 sequence (O60674 whole entry): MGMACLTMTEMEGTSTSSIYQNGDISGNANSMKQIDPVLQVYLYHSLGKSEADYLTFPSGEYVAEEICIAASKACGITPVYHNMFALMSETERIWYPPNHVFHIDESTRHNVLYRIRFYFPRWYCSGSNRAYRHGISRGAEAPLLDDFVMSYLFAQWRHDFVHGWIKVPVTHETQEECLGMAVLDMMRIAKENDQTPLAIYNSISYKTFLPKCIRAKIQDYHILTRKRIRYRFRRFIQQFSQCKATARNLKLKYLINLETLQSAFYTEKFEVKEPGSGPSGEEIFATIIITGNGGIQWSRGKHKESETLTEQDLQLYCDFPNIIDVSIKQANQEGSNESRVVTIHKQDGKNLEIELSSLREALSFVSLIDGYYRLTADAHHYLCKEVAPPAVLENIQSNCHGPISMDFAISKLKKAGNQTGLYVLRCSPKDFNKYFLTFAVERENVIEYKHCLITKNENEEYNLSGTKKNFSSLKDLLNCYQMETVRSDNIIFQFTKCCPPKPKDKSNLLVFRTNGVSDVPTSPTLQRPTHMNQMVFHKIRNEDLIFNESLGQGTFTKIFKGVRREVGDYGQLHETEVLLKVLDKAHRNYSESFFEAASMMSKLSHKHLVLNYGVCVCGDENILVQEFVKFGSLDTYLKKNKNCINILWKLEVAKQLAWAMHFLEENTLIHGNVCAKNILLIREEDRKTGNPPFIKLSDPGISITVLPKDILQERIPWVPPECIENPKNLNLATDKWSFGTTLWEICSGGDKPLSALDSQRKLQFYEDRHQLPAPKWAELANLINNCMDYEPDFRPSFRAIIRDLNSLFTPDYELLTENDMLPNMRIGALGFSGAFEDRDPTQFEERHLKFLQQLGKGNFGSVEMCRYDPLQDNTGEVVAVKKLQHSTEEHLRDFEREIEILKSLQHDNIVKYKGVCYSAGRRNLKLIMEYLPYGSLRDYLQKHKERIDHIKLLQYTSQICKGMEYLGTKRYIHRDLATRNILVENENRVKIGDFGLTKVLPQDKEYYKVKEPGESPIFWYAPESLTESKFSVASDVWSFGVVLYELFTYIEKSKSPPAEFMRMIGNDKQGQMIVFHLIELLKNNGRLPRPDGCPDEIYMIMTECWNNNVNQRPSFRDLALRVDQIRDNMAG
# T2 sequence (P29597 whole entry, the tested form may be a part): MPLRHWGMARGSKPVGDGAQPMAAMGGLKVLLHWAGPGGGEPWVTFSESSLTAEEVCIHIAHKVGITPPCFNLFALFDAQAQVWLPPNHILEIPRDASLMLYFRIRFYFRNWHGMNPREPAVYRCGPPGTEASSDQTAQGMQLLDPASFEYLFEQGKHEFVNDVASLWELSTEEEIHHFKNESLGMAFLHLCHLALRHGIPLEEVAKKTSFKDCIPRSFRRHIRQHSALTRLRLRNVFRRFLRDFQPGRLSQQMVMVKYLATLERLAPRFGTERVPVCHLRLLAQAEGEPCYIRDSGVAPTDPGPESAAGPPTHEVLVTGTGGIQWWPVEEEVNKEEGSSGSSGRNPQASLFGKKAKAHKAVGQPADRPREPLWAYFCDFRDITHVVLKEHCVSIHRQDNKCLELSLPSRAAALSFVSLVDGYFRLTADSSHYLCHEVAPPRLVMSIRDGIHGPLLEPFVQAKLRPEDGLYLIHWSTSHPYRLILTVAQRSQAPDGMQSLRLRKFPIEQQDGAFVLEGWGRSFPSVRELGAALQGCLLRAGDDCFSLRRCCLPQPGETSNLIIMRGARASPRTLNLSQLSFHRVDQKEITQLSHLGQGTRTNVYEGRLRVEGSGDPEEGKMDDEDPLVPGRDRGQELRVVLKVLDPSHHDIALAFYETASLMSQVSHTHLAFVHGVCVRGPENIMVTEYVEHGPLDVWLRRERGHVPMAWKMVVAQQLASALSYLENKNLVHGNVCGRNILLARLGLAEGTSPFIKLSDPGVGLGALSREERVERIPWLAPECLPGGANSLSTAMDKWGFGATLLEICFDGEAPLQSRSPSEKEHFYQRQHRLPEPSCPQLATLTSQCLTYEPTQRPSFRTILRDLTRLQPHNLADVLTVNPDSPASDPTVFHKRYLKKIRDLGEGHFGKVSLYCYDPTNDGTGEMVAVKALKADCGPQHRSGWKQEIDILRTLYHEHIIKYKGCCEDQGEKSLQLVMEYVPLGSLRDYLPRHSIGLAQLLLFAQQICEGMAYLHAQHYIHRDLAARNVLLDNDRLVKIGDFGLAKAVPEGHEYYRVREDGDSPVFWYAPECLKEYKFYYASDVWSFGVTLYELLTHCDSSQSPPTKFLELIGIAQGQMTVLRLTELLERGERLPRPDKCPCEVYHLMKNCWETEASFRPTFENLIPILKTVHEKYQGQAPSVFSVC
SMILES,Kd [3],Kd [4],IC50 [5],IC50 [6],deltaG [7],deltaH [8],-TdeltaS [9],Kd [12],IC50 [14],IC50 [18],also measured
O=C(Nc1c[nH]nc1-c1nc2ccc(CN3CCOCC3)cc2[nH]1)NC1CC1,–,–,–,–,–,–,–,–,–,–,Activity [1]: Active; Activity [2]: Active
C1=C/COCc2cc(ccc2OCCN2CCCC2)Nc2nccc(n2)-c2cccc(c2)COC/1 [PACRITINIB],0.318 µM,0.125 µM,0.371 µM,0.536 µM,–,–,–,–,–,–,–
C1=N/C2=N/c3ccc(OCCN4CCCC4)c(c3)COC/C=C/COCc3cccc(c3)C(=C1)N2,–,–,–,–,-10.9 kcal/mol,-7.6 kcal/mol,-3.3 kcal/mol,–,–,–,Activity [2]: Active
N#CCNC(=O)c1ccc(-c2ccnc(Nc3ccc(N4CCOCC4)cc3)n2)cc1,–,–,–,–,-11.3 kcal/mol,-14.4 kcal/mol,3.2 kcal/mol,–,–,–,–
N#CC[C@H](C1CCCC1)n1cc(-c2ncnc3[nH]ccc23)cn1,–,–,–,–,–,–,–,–,–,–,Activity (BaF3 [10]): Active; Activity (BaF3 [11]): Active
C[C@H](Nc1cc(-c2cnn(C)c2)cc(Nc2cnccn2)n1)c1ccc(F)cc1 [NS-018],0.016 µM,0.021 µM,0.0071 µM,0.216 µM,-11.3 kcal/mol,-12.5 kcal/mol,1.2 kcal/mol,0.0045 µM,0.0008 µM,0.041 µM,Kd [13]: 0.019 µM; IC50 [15]: 0.182 µM; Ratio IC50 (Homo sapiens [16]): 9; Kd [17]: 0.004 µM; Ratio IC50 (Homo sapiens [19]): 1.7; Ratio IC50 (Homo sapiens [20]): 2.8; Ratio IC50 (Homo sapiens [21]): 0.6; Ratio IC50 (Homo sapiens [22]): 5.8
N#CCC1(n2cc(-c3ncnc4[nH]ccc34)cn2)CN(C2CCN(C(=O)c3ccnc(C(F)(F)F)c3F)CC2)C1 [ITACITINIB],0.051 µM,0.385 µM,0.0034 µM,4.1 µM,-10.7 kcal/mol,-5.4 kcal/mol,-5.4 kcal/mol,0.026 µM,0.054 µM,0.488 µM,Kd [13]: 0.324 µM; IC50 [15]: 10.8 µM; Kd [17]: 0.0107 µM; Ratio IC50 (Homo sapiens [19]): 0.4; Ratio IC50 (Homo sapiens [20]): 1.2; Ratio IC50 (Homo sapiens [21]): 0.8; Ratio IC50 (Homo sapiens [22]): 16.7
Cc1cc(Nc2cc(CN3CCOCC3)c3nc(C)c(Cc4ccc(Cl)cc4F)n3n2)n[nH]1 [GANDOTINIB],0.0082 µM,0.016 µM,0.0073 µM,0.092 µM,–,–,–,0.011 µM,0.0062 µM,0.155 µM,Kd [13]: 0.013 µM; IC50 [15]: 0.199 µM; deltaG [23]: -10.7 kcal/mol; Kd [24]: 0.011 µM; deltaH [25]: -4.1 kcal/mol; -TdeltaS [26]: -6.6 kcal/mol; Ratio IC50 (Homo sapiens [19]): 1.1; Ratio IC50 (Homo sapiens [20]): 4; Ratio IC50 (Homo sapiens [21]): 2.3; Ratio IC50 (Homo sapiens [22]): 7.5; Ratio IC50 [27]: 1.5
CCS(=O)(=O)N1CCN(c2ccc(Nc3ncc(C(N)=O)c(NC4CC4)n3)cc2)CC1 [CERDULATINIB],0.023 µM,0.0069 µM,0.022 µM,0.026 µM,-10.8 kcal/mol,-10.4 kcal/mol,-0.4 kcal/mol,0.0048 µM,0.011 µM,0.099 µM,Activity [1]: Active; Activity [2]: Active; Kd [17]: 0.0089 µM
O=C(Nc1c[nH]nc1-c1nc2cc(CN3CCOCC3)ccc2[nH]1)NC1CC1 [AT-9283],0.037 µM,–,0.065 µM,–,–,–,–,–,–,–,–
C[C@]12O[C@H](C[C@]1(O)CO)n1c3ccccc3c3c4c(c5c6ccccc6n2c5c31)CNC4=O,–,–,–,–,–,–,–,–,–,–,Activity (BaF3 [10]): Active; Activity (BaF3 [11]): Active
